Reference: ChEMBL document CHEMBL3044557, “Phytotoxicity Caused by Peroxidizing Herbicides Is Alleviated by 2-Substituted 4, 6-Bis(ethylamino)-1, 3, 5-triazines” (J Pestic Sci, 1997)
Activity calls are given as the source filed them. No cut-off for these calls is given here.

How the values were obtained:
Scenedesmus acutus [1] = assay: Protection against chlorophthalim-induced phytotoxicity in Scenedesmus acutus in light condition assessed as reduction of ethane formation per ml of packed cell volume after 16 hr (reference value: 11.82 nM); assay type: functional
Scenedesmus acutus [2] = assay: Protection against chlorophthalim-induced phytotoxicity in Scenedesmus acutus in light condition assessed as cell density per micro liter of packed cell volume after 16 hr (reference value: 2.1 ml); assay type: functional; design: unit not given here
Scenedesmus acutus [3] = assay: Protection against chlorophthalim-induced phytotoxicity in Scenedesmus acutus in light condition assessed as increase of chlorophyll content after 16 hr (reference value: 0.94 ug/ml); assay type: functional
Scenedesmus acutus [4] = assay: Protection against chlorophthalim-induced phytotoxicity in Scenedesmus acutus in light condition assessed as reduction of protoporphyrin-9 accumulation per ml of packed cell volume after 2 hr; assay type: functional
Scenedesmus acutus [5] = assay: Protection against oxyfluorfen-induced phytotoxicity in Scenedesmus acutus in light condition assessed as reduction of ethane formation per ml of packed cell volume after 16 hr (reference value: 11.82 nM); assay type: functional
Scenedesmus acutus [6] = assay: Protection against oxyfluorfen-induced phytotoxicity in Scenedesmus acutus in light condition assessed as increase of chlorophyll content after 16 hr (reference value: 0.94 ug/ml); assay type: functional
Scenedesmus acutus [7] = assay: Phytotoxicity against Scenedesmus acutus in light condition assessed as cell density per micro liter of packed cell volume after 16 hr (reference value: 3.4 ml); assay type: functional; design: unit not given here
Scenedesmus acutus [8] = assay: Protection against oxyfluorfen-induced phytotoxicity in Scenedesmus acutus in light condition assessed as cell density per micro liter of packed cell volume after 16 hr (reference value: 2.1 ml); assay type: functional; design: unit not given here
Scenedesmus acutus [9] = assay: Protection against oxyfluorfen-induced phytotoxicity in Scenedesmus acutus in light condition assessed as reduction of protoporphyrin-9 accumulation per ml of packed cell volume after 2 hr; assay type: functional
Scenedesmus acutus [10] = assay: Phytotoxicity against Scenedesmus acutus in dark condition assessed as effect on protoporphyrin-9 accumulation per ml of packed cell volume at 10^-5 M after 16 hr; assay type: functional, organism-based
Scenedesmus acutus [11] = assay: Phytotoxicity against Scenedesmus acutus in light condition assessed as effect on protoporphyrin-9 accumulation per ml of packed cell volume at 10^-5 M after 16 hr; assay type: functional, organism-based
Scenedesmus acutus [12] = assay: Phytotoxicity against Scenedesmus acutus in light condition assessed as reduction of chlorophyll content after 16 hr (reference value: 20.25 ug/ml); assay type: functional

Row | Structure (SMILES) | Activity (Scenedesmus acutus [1]) | Activity (Scenedesmus acutus [2]) | Activity (Scenedesmus acutus [3]) | Activity (Scenedesmus acutus [4]) | Activity (Scenedesmus acutus [5]) | Activity (Scenedesmus acutus [6]) | Activity (Scenedesmus acutus [7]) | Activity (Scenedesmus acutus [8]) | Activity (Scenedesmus acutus [9]) | Activity (Scenedesmus acutus [10]) | Activity (Scenedesmus acutus [11]) | Activity (Scenedesmus acutus [12])
1 | O=C1C2=C(CCCC2)C(=O)N1c1ccc(Cl)cc1 [CHLOROPHTHALIUM] | 12.73 nmol/mL | 2.3 | 0.99 µg/mL | 128.65 nmol/mL | – | – | – | – | – | – | – | –
2 | CCNc1nc(NCC)nc(C(Cl)(Cl)Cl)n1 | 3.63 nmol/mL | 2.4 | 10.48 µg/mL | 27.65 nmol/mL | 1.63 nM | 13.31 µg/mL | 2.6 | 2.2 | 37.08 nM | inactive | inactive | 19.23 µg/mL
3 | CCNc1nc(Cl)nc(NCC)n1 [SIMAZINE] | 4.24 nmol/mL | – | 10.52 µg/mL | 19.15 nmol/mL | 2.82 nM | 13.05 µg/mL | – | – | 52.7 nM | inactive | inactive | 16.86 µg/mL
4 | CCNc1nc(NCC)nc(SC)n1 [SIMETRYN] | 1.7 nmol/mL | – | 10.52 µg/mL | 31.92 nmol/mL | 0.4 nM | 14.46 µg/mL | – | – | 30.67 nM | inactive | inactive | 17.74 µg/mL
5 | CCOc1cc(Oc2ccc(C(F)(F)F)cc2Cl)ccc1[N+](=O)[O-] [OXYFLUORFEN] | – | – | – | – | 11.82 nM | 0.94 µg/mL | – | – | 102.38 nM | – | – | –
6 | CN(C)C(=O)Nc1ccc(Cl)c(Cl)c1 [DCMU] | 0.41 nmol/mL | – | 11.56 µg/mL | 18.86 nmol/mL | – | 14.57 µg/mL | – | – | 29.12 nM | – | – | 17.66 µg/mL
7 | CCNc1nc(NCC)nc(C(F)(F)F)n1 | 3.2 nmol/mL | 2.4 | 11.04 µg/mL | 38.65 nmol/mL | 1.26 nM | 13.53 µg/mL | 2.6 | 2.4 | 31.24 nM | inactive | inactive | 16.7 µg/mL
8 | CCNc1nc(C)nc(NCC)n1 | 12.92 nmol/mL | 2.3 | 1.37 µg/mL | 67.45 nmol/mL | 11.93 nM | 1.05 µg/mL | 3 | 2.3 | 57.97 nM | inactive | inactive | 19.09 µg/mL
9 | CCNc1nc(NCC)nc(-c2ccccc2)n1 | 13.64 nmol/mL | 2.3 | 0.46 µg/mL | 133.96 nmol/mL | 11.93 nM | 0.67 µg/mL | 3.2 | 2.2 | 69.9 nM | inactive | inactive | 19.08 µg/mL
